Earlier results as cited in US20090239289A1, “Drain Foam Composition and Method of Using the Same” (priority 2008, published 2009).

Compound: CC(COc1ccc(Oc2ccccc2)cc1)Oc1ccccn1 (stereo not shown) [Nylar, 2-[1-methyl-2(4-phenoxyphenoxy)ethoxy]pyridine]
- residual when used outdoors: about 30 days
